This test has as its system P388 leukemia ip, CD2F1 mice, survival T/C. Description: NCI In Vivo Anticancer Drug Screen. Data for tumor model P388 Leukemia (intraperitoneal) in CD2F1 (CDF1) mice. The conditions noted are these: endpoint: median survival time, higher = longer survival. The essentials:
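Mice carrying the transplanted tumor received test compound or vehicle. Survival was recorded in each group, and the value is the treated-group measurement divided by that of the vehicle-treated control group.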

[1] abbreviates: dose: 25.0 mg/kg/injection, schedule: Q04DX003 (ip), vehicle: saline with Tween-80.
Where [2] appears, read: dose: 50.0 mg/kg/injection, schedule: Q04DX003 (ip), vehicle: saline with Tween-80.
[3] abbreviates: dose: 25.0 mg/kg/injection, schedule: Q04DX002 (ip), vehicle: saline.
Where [4] appears, read: dose: 50.0 mg/kg/injection, schedule: Q04DX002 (ip), vehicle: saline.
The mark [5] stands for this setting: dose: 50.0 mg/kg/injection, schedule: Q01DX009 (ip), vehicle: Klucel (hydroxypropylcellulose) (HPC).
The mark [6] stands for this setting: dose: 100.0 mg/kg/injection, schedule: Q01DX009 (ip), vehicle: Klucel (hydroxypropylcellulose) (HPC).

“And” between values parts separate entries of the source, which are not always exact repeats. Equal entries are not always repeated. Inconclusive results and toxic doses are left out.

In the case of `CCc1nc(Cc2ccccc2)nc2c1nc(-c1ccccc1)n2Nc1ccccc1`, the T/C is 92 % of control (dose: 100.0 mg/kg/injection, schedule: Q01DX001 (ip), vehicle: saline with Tween-80); 98 % of control (dose: 200.0 mg/kg/injection, schedule: Q01DX001 (ip), vehicle: saline with Tween-80); 92 % of control (dose: 400.0 mg/kg/injection, schedule: Q01DX001 (ip), vehicle: saline with Tween-80).

With `CCOC(=O)C[P+](c1ccccc1)(c1ccccc1)c1ccccc1`, the T/C was 95 % of control (dose: 3.3 mg/kg/injection, schedule: Q01DX009 (ip), vehicle: saline sonified); 90 % of control (dose: 6.25 mg/kg/injection, schedule: Q01DX009 (ip), vehicle: saline sonified); 100 % of control (dose: 12.5 mg/kg/injection, schedule: Q01DX009 (ip), vehicle: saline sonified); 100 % of control (dose: 25.0 mg/kg/injection, schedule: Q01DX009 (ip), vehicle: saline sonified).

Take `CCCCCCCC(=O)[O][Hg][CH2]C1COC([CH2][Hg][O]C(=O)CCCCCCC)CO1` (centres undefined): the T/C (dose: 12.5 mg/kg/injection, schedule: Q04DX003 (ip), vehicle: saline with Tween-80) was 95 % of control; the T/C (dose: 16.5 mg/kg/injection, schedule: Q01DX009 (ip), vehicle: saline sonified) was 120 % of control; the T/C (dose: 16.5 mg/kg/injection, schedule: Q04DX003 (ip), vehicle: saline) was 90 % of control; the T/C under setting [1] is 109 % of control; the T/C (dose: 25.0 mg/kg/injection, schedule: Q04DX003 (ip), vehicle: saline) was 90 % of control; the T/C (dose: 37.5 mg/kg/injection, schedule: Q01DX009 (ip), vehicle: saline sonified) was 120 % of control. Further, the T/C is 90 % of control (dose: 37.5 mg/kg/injection, schedule: Q04DX003 (ip), vehicle: saline) and 118 % of control under setting [2].

For `Cc1cc2oc3c(c2c(=O)[nH]1)C(=O)c1ccccc1C3=O`, the T/C (dose: 60.0 mg/kg/injection, schedule: Q01DX005 (ip), vehicle: saline with Tween-80) was 100 % of control; the T/C (dose: 120.0 mg/kg/injection, schedule: Q01DX005 (ip), vehicle: saline with Tween-80) is 94 % of control; the T/C (dose: 240.0 mg/kg/injection, schedule: Q01DX005 (ip), vehicle: saline with Tween-80) was 91 % of control.

On to `Nc1nccc(NCCCCCCNc2ccnc(N)n2)n1`, for which the T/C is 104 % of control and 108 % of control (dose: 12.5 mg/kg/injection, schedule: Q04DX002 (ip), vehicle: saline); 106 % of control and 114 % of control under setting [3]; 105 % of control and 114 % of control under setting [4]; 114 % of control and 119 % of control (dose: 100.0 mg/kg/injection, schedule: Q04DX002 (ip), vehicle: saline); 116 % of control and 123 % of control (dose: 200.0 mg/kg/injection, schedule: Q04DX002 (ip), vehicle: saline).

Consider `Cc1nc(O)c([N+](=O)[O-])c(=O)[nH]1`, for which the T/C (dose: 25.0 mg/kg/injection, schedule: Q01DX009 (ip), vehicle: other) was 99 % of control; the T/C (dose: 50.0 mg/kg/injection, schedule: Q01DX009 (ip), vehicle: other) is 98 % of control; the T/C (dose: 100.0 mg/kg/injection, schedule: Q01DX009 (ip), vehicle: other) is 110 % of control; the T/C (dose: 200.0 mg/kg/injection, schedule: Q01DX009 (ip), vehicle: other) is 102 % of control.

Take `CNC(=S)Sc1c(Cl)c(Cl)c(Cl)c(Cl)c1Cl`: the T/C is, setting by setting: under setting [5], 108 % of control; under setting [6], 108 % of control; (dose: 200.0 mg/kg/injection, schedule: Q01DX009 (ip), vehicle: Klucel (hydroxypropylcellulose) (HPC)) 99 % of control.

Regarding `Cc1ccc(S(=O)(=O)C2(NC(=O)c3ccc(Cl)cc3)CC2)cc1`, the T/C reads like this: (dose: 30.0 mg/kg/injection, schedule: Q01DX005 (ip), vehicle: Klucel (hydroxypropylcellulose) (HPC)) 92 % of control and 94 % of control; (dose: 60.0 mg/kg/injection, schedule: Q01DX005 (ip), vehicle: Klucel (hydroxypropylcellulose) (HPC)) 93 % of control; (dose: 120.0 mg/kg/injection, schedule: Q01DX005 (ip), vehicle: Klucel (hydroxypropylcellulose) (HPC)) 86 % of control and 91 % of control and 92 % of control.

As to `CC1=CC(=O)C(O)C2(C)C1CC1OC(=O)C=C3C(C)(C4OC(=O)CC4CO)CC(O)C2C31C` (centres undefined), the T/C runs as follows: (dose: 2.5 mg/kg/injection, schedule: Q01DX009 (ip), vehicle: saline + alcohol) 92 % of control; (dose: 5.0 mg/kg/injection, schedule: Q01DX009 (ip), vehicle: saline + alcohol) 98 % of control; (dose: 10.0 mg/kg/injection, schedule: Q01DX009 (ip), vehicle: saline + alcohol) 108 % of control; (dose: 20.0 mg/kg/injection, schedule: Q01DX009 (ip), vehicle: saline + alcohol) 101 % of control.

Turning to `CC(C(=O)O)c1cccc2c(=O)cc(-c3ccccc3)oc12` (centres undefined), the T/C is 100 % of control (dose: 50.0 mg/kg/injection, schedule: Q01DX005 (ip), vehicle: Klucel (hydroxypropylcellulose) (HPC)); 87 % of control (dose: 100.0 mg/kg/injection, schedule: Q01DX005 (ip), vehicle: Klucel (hydroxypropylcellulose) (HPC)); 109 % of control (dose: 200.0 mg/kg/injection, schedule: Q01DX005 (ip), vehicle: Klucel (hydroxypropylcellulose) (HPC)).

On to `CC1CC(C)OC(C(C)(C)C)O1` (centres undefined), for which the T/C reads like this: (dose: 60.0 mg/kg/injection, schedule: Q01DX005 (ip), vehicle: saline) 107 % of control; (dose: 120.0 mg/kg/injection, schedule: Q01DX005 (ip), vehicle: saline) 109 % of control; (dose: 240.0 mg/kg/injection, schedule: Q01DX005 (ip), vehicle: saline) 107 % of control.

`NC(=S)NC12CC3CC(CC(C3)C1)C2`: the T/C runs as follows: (dose: 50.0 mg/kg/injection, schedule: Q04DX002 (ip), vehicle: saline with Tween-80) 99 % of control; (dose: 100.0 mg/kg/injection, schedule: Q04DX002 (ip), vehicle: saline with Tween-80) 98 % of control; (dose: 200.0 mg/kg/injection, schedule: Q04DX002 (ip), vehicle: saline with Tween-80) 98 % of control.

For `C/C(N)=C\C#N`, the T/C by setting is: under setting [1], 100 % of control; under setting [2], 101 % of control; (dose: 100.0 mg/kg/injection, schedule: Q04DX003 (ip), vehicle: saline with Tween-80) 98 % of control and 97 % of control.

With `CC1CCC(C(C)C)C(NC(=O)c2ccc[n+](C)c2)C1` (centres undefined), the T/C is 97 % of control under setting [3] and 97 % of control under setting [4].

For the compound `Cc1ccc(NCCN(C)C)c2c(=O)c3cc(O)ccc3sc12`, the T/C reads like this: (dose: 1.0 mg/kg/injection, schedule: Q01DX009 (ip), vehicle: saline with Tween-80) 103 % of control; (dose: 8.0 mg/kg/injection, schedule: Q01DX009 (ip), vehicle: Klucel (hydroxypropylcellulose) (HPC)) 180 % of control; (dose: 16.0 mg/kg/injection, schedule: Q01DX009 (ip), vehicle: Klucel (hydroxypropylcellulose) (HPC)) 170 % of control; (dose: 16.0 mg/kg/injection, schedule: Q01DX009 (ip), vehicle: saline with Tween-80) 151 % of control; (dose: 32.0 mg/kg/injection, schedule: Q01DX009 (ip), vehicle: Klucel (hydroxypropylcellulose) (HPC)) 191 % of control; (dose: 32.0 mg/kg/injection, schedule: Q01DX009 (ip), vehicle: saline with Tween-80) 157 % of control. Moreover, the T/C was 97 % of control (dose: 37.0 mg/kg/injection, schedule: Q01DX009 (ip), vehicle: Klucel (hydroxypropylcellulose) (HPC)); 234 % of control under setting [5]; 265 % of control (dose: 64.0 mg/kg/injection, schedule: Q01DX009 (ip), vehicle: Klucel (hydroxypropylcellulose) (HPC)); 87 % of control under setting [6].

Turning to `CCC[CH2][Sn]1([CH2]CCC)[O]CC[S]1`, the T/C (dose: 3.12 mg/kg/injection, schedule: Q01DX009 (ip), vehicle: Klucel (hydroxypropylcellulose) (HPC)) was 116 % of control.

Regarding `O=C[O-].[NH2-].[NH2-].[NH2-].[NH2-].[NH2-].[O-][Cl+3]([O-])([O-])O.[Ru+8]`, the T/C runs as follows: (dose: 1.56 mg/kg/injection, schedule: Q04DX003 (ip), vehicle: saline) 105 % of control; (dose: 3.13 mg/kg/injection, schedule: Q04DX003 (ip), vehicle: saline) 104 % of control; (dose: 6.25 mg/kg/injection, schedule: Q04DX003 (ip), vehicle: saline) 124 % of control.

For the compound `CC(C)(C)/C(O)=C/c1nc2ccc(Cl)cc2[nH]c1=O`, the T/C runs as follows: (dose: 7.5 mg/kg/injection, schedule: Q01DX005 (ip), vehicle: Klucel + Tween-80) 97 % of control; (dose: 15.0 mg/kg/injection, schedule: Q01DX005 (ip), vehicle: Klucel + Tween-80) 92 % of control; (dose: 30.0 mg/kg/injection, schedule: Q01DX005 (ip), vehicle: Klucel + Tween-80) 88 % of control; (dose: 240.0 mg/kg/injection, schedule: Q01DX005 (ip), vehicle: Klucel + Tween-80) 90 % of control.

The values above are taken from PubChem BioAssay AID330 (DTP/NCI, 2004).
